Experimental data reported in patent US6770659B2, “Benzoyl piperidine compounds” (SK Corporation, priority 2002, dated 2004).
Where two headings read alike, the source gives them in different places.

System: climbing behavior induced by apomorphine in mice
Assay: Climbing Mouse Assay (anti-climbing behavior test)
Format: in vivo
Conditions: ICR CD strain male mice, apomorphine challenge; for ED50: Mus musculus
Excerpt: This activity was examined through the anti-climbing behavior test, i.e. the test for suppressing the climbing behavior induced by apomorphine in mice. A designated amount of the test compound was intraperitoneally or orally administered to several groups of ICR CD strain male mice (body weight, 20 to 25 g; one group, 6 mice), and each of the animals was charged in an individual column cage of 12 cm in diameter and 14 cm in height having metal poles (each pole, 2 mm in diameter) vertically installed and arranged along the periphery with interval of 1 cm.
Compounds to be tested for antipsychotic activity are injected intraperitoneally or given orally at various time intervals, e.g. 30 minutes, 60 minutes, etc., prior to the apomorphine challenge at a screening dose of 0.1-60 mg/kg.
For evaluation of climbing, 3 readings are taken at 10, 20 and 30 minutes after apomorphine administration according to the following scale:
Mice consistently climbing before the injection of apomorphine will be discarded.
With full-developed apomorphine climbing, the animals are hanging on to the cage walls, rather motionless, over longer periods of time. By contrast, climbing due to mere motor stimulation usually only lasts a few seconds.
The climbing scores are individually totaled (maximal score: 12 per mouse over 3 readings) and the total score of the control group (vehicle intraperitoneally-apomorphine subcutaneously) is set to 100%. ED50 values with 95% confidence limits, calculated by a linear regression analysis, of some of the compounds of the instant invention as well as a standard antipsychotic agent are presented in Table I.

[1] = intraperitoneal administration, read-out: Climbing Mouse Assay ED50 i.p.
[2] = oral administration, read-out: Climbing Mouse Assay ED50 p.o. (converted)

SMILES | Climbing Mouse Assay ED50 i.p. (intraperitoneal administration) | Climbing Mouse Assay ED50 p.o. (oral administration) | ED50 [1] | ED50 [2]
CC(C)c1ccc(C(CN2CCC(C(=O)c3ccc(F)cc3)CC2)n2cncn2)cc1.Cl.Cl.Cl (centres unmarked) [(4-Fluoro-phenyl)-{1-[2-(4-isopropyl-phenyl)-2-[1,2,4]triazoyl-1-yl-ethyl]-piperidin-4-yl}-methanone trihydrochloride] | 3.1 mg/kg | 4.7 mg/kg | – | –
COC(CN1CCC(C(=O)c2ccc(F)cc2)CC1)c1ccc(C(C)C)cc1 (centres unmarked) [(4-Fluoro-phenyl)-{1-[2-(4-isopropyl-phenyl)-2-methoxy-ethyl]-piperidin-4-yl}-methanone] | – | – | 0.17 mg/kg | 0.41 mg/kg
COC(CN1CCC(C(=O)c2ccc(F)cc2)CC1)c1ccc([N+](=O)[O-])cc1.Cl (centres unmarked) [(4-Fluoro-phenyl)-{1-[2-methoxy-2-(4-nitro-phenyl)-ethyl]-piperidin-4yl}-methanone; hydrochloride] | – | – | 5.9 mg/kg | 51.2 mg/kg
CO[C@@H](CN1CCC(C(=O)c2ccc(F)cc2)CC1)c1ccc([N+](=O)[O-])cc1 [(R)-(4-Fluoro-phenyl)-{1-[2-methoxy-2-(4-nitro-phenyl)-ethyl]-piperidin-4-yl}-methanone] | – | – | 24.2 mg/kg | –
Cl.NC(=O)O[C@@H](CN1CCC(C(=O)c2ccc(F)cc2)CC1)c1ccccc1 [(R)-Carbamic acid 2-[4-(4-fluoro-benzoyl)-piperidin-1-yl]-1-phenyl-ethyl ester; hydrochloride] | – | – | 17.8 mg/kg | 46.2 mg/kg
CO[C@H](CN1CCC(C(=O)c2ccc(F)cc2)CC1)c1ccc(C(C)C)cc1 [(S)-(4-Fluoro-phenyl)-{1-[2-(4-isopropyl-phenyl)-2-methoxy-ethyl]-piperidin-4-yl}-methanone] | – | – | 0.13 mg/kg | 0.09 mg/kg
CO[C@H](CN1CCC(C(=O)c2ccc(F)cc2)CC1)c1ccc([N+](=O)[O-])cc1 [(S)-(4-Fluoro-phenyl)-{1-[2-methoxy-2-(4-nitro-phenyl)-ethyl]-piperidin-4-yl}-methanone] | – | – | 4.5 mg/kg | 16.9 mg/kg
Cl.NC(=O)O[C@H](CN1CCC(C(=O)c2ccc(F)cc2)CC1)c1ccccc1 [(S)-Carbamic acid 2-[4-(4-fluoro-benzoyl)-piperidin-1-yl]-1-phenyl-ethyl ester; hydrochloride] | – | – | 0.96 mg/kg | 4.3 mg/kg
CCc1ccc([C@@H](CN2CCC(C(=O)c3ccc(F)cc3)CC2)OC)cc1 [(S)-{1-[2-(4-Ethyl-phenyl)-2-methoxy-ethyl]-piperidin-4-yl}-(4-fluoro-phenyl)-methanone] | – | – | 0.31 mg/kg | 1.2 mg/kg
O=C(c1ccc(F)cc1)C1CCN(CC(COc2ccccc2)OC(=O)N2CCCCCC2)CC1 (centres unmarked) [Azepane-1-carboxylic acid 1-[4-(4-fluoro-benzoyl)-piperidin-1-ylmethyl]-2-phenoxy-ethyl ester] | – | – | 1.5 mg/kg | –
Cl.O=C(NCc1ccccc1)OC(CN1CCC(C(=O)c2ccc(F)cc2)CC1)c1ccccc1 (centres unmarked) [Benzyl-carbamic acid 2-[4-(4-fluoro-benzoyl)-piperidin-1-yl]-1-phenyl-ethyl ester; hydrochloride] | – | – | 2.2 mg/kg | 7.1 mg/kg
Cl.NC(=O)OC(CN1CCC(C(=O)c2ccc(F)cc2)CC1)c1ccc(Cl)c(Cl)c1 (centres unmarked) [Carbamic acid 1-(3,4-dichloro-phenyl)-2-[4-(4-fluoro-benzoyl)-piperidin-1-yl]-ethyl ester; hydrochloride] | – | – | 0.32 mg/kg | 0.48 mg/kg
Cl.NC(=O)OC(CN1CCC(C(=O)c2ccc(F)cc2)CC1)c1cccc(Cl)c1 (centres unmarked) [Carbamic acid 1-(3-chloro-phenyl)-2-[4-(4-fluoro-benzoyl)-piperidin-1-yl]-ethyl ester; hydrochloride] | – | – | 0.56 mg/kg | 0.94 mg/kg
Cl.NC(=O)OC(COc1ccccc1)CN1CCC(C(=O)c2ccc(F)cc2)CC1 (centres unmarked) [Carbamic acid 1-[4-(4-fluoro-benzoyl)-piperidin-1-ylmethyl]-2-phenoxy-ethyl ester; hydrochloride] | – | – | 2 mg/kg | 8.5 mg/kg
Cl.NC(=O)OC(CN1CCC(C(=O)c2ccc(F)cc2)CC1)c1cccc([N+](=O)[O-])c1 (centres unmarked) [Carbamic acid 2-[4-(4-fluoro-benzoyl)-piperidin-1-yl]-1-(3-nitro-phenyl)-ethyl ester; hydrochloride] | – | – | 2.6 mg/kg | –
Cl.NC(=O)OC(CN1CCC(C(=O)c2ccc(F)cc2)CC1)c1ccc(C(F)(F)F)cc1 (centres unmarked) [Carbamic acid 2-[4-(4-fluoro-benzoyl)-piperidin-1-yl]-1-(4-trifluoromethyl-phenyl)-ethyl ester; hydrochloride] | – | – | 1.8 mg/kg | –
Cl.NC(=O)OC(CN1CCC(C(=O)c2ccc(F)cc2)CC1)c1ccccc1 (centres unmarked) [Carbamic acid 2-[4-(4-fluoro-benzoyl)-piperidin-1-yl]-1-phenyl-ethyl ester; hydrochloride] | – | – | 4.8 mg/kg | 9.7 mg/kg
CC(C)OC(=O)OC(CN1CCC(C(=O)c2ccc(F)cc2)CC1)c1cccc(Cl)c1 (centres unmarked) [Carbonic acid 1-(3-chloro-phenyl)-2-[4-(4-fluoro-benzoyl)-piperidin-1-yl]-ethyl ester isopropyl ester] | – | – | 6.2 mg/kg | –
CCc1ccc(C(CN2CCC(C(=O)c3ccc(F)cc3)CC2)OC(=O)OC)cc1 (centres unmarked) [Carbonic acid 1-(4-ethyl-phenyl)-2-[4-(4-fluoro-benzoyl)-piperidin-1-yl]-ethyl ester methyl ester] | – | – | 2.4 mg/kg | 7.6 mg/kg
CN1CCN(C2=Nc3cc(Cl)ccc3Nc3ccccc32)CC1 [Clozapine, reference compound] | – | – | 6.3 mg/kg | 13.5 mg/kg
Cc1nc2n(c(=O)c1CCN1CCC(c3noc4cc(F)ccc34)CC1)CCCC2 [Risperidone, reference compound] | – | – | 0.11 mg/kg | 0.29 mg/kg
Cc1ccc(C(CN2CCC(C(=O)c3ccc(F)cc3)CC2)n2cncn2)cc1C (centres unmarked) [{1-[2-(3,4-Dimethyl-phenyl)-2-[1,2,4]triazol-1-yl-ethyl]-piperidin-4-yl}-(4-fluoro-phenyl)-methanone] | – | – | 4.5 mg/kg | 16.6 mg/kg
CCc1ccc(C(CN2CCC(C(=O)c3ccc(F)cc3)CC2)OC)cc1 (centres unmarked) [{1-[2-(4-Ethyl-phenyl)-2-methoxy-ethyl]-piperidin-4-yl}-(4-fluoro-phenyl)-methanone] | – | – | 0.87 mg/kg | –
CCOC(CN1CCC(C(=O)c2ccc(F)cc2)CC1)c1ccc([N+](=O)[O-])cc1 (centres unmarked) [{1-[2-Ethoxy-2-(4-nitro-phenyl)-ethyl]-piperidin-4-yl}-(4-fluoro-1phenyl)-methanone] | 4.16 mg/kg | – | – | –
